The source of these data is the kinase profiling compilation of Christmann-Franck et al. (2016).

Molecules are shown by their SMILES.

The target of one test is NUAK1 (human) (UniProt O60285). Kind of test: radiometric filter-binding kinase assay.
Another test has as its target MAP2K6 (human) (UniProt P52564). Nature of the test: radiometric filter-binding kinase assay.

NUAK1 (human), sequence (O60285 whole entry, looked up): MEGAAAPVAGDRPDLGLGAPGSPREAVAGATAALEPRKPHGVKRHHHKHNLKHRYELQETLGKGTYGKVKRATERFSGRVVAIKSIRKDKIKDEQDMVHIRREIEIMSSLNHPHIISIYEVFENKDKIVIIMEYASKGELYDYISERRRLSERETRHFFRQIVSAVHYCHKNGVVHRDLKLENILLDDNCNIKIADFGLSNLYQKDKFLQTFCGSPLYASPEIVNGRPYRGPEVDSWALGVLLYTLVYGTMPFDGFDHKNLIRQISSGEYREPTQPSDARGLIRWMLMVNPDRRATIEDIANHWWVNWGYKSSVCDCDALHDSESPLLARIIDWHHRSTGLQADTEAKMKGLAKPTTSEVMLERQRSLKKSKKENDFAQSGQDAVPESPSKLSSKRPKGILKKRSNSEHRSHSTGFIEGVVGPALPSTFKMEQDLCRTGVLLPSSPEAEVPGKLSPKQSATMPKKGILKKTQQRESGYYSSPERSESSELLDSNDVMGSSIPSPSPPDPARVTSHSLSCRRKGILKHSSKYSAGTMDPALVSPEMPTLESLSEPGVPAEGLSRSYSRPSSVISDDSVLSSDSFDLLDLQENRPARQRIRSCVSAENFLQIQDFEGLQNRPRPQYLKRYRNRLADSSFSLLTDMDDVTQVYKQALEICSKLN
MAP2K6 (human), sequence (P52564 whole entry, looked up): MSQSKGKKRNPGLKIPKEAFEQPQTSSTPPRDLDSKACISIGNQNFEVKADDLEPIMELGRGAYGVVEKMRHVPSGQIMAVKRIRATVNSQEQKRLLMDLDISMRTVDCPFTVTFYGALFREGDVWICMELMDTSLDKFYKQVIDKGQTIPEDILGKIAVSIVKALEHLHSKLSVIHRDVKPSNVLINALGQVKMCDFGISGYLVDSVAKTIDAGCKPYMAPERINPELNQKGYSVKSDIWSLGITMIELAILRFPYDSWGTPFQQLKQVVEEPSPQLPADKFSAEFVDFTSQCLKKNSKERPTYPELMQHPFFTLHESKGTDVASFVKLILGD

For orientation: residual activity means the signal under treatment as a percentage of the control signal. For the compound `CN1C(=O)[C@@H](Cc2c[nH]c3ccccc23)NC1=S`, the residual activity on NUAK1 (human) (compound 1.0 µM) was 108%; on NUAK1 (human) (compound 10.0 µM), 101%.

`O=C(O)c1ccc(-c2c[nH]c3ncc(-c4ccccc4)cc23)cc1C1CCCC1`: the residual activity at MAP2K6 (human) (compound 0.1 µM) amounted to 97%; at NUAK1 (human) (compound 0.1 µM), 45%; at NUAK1 (human) (compound 1.0 µM), 15%; at NUAK1 (human) (compound 10.0 µM) it was 10%.

For `NS(=O)(=O)OC[C@@H]1C[C@@H](n2ccc3c(N[C@H]4CCc5ccccc54)ncnc32)C[C@@H]1O`, the residual activity turned out to be 95% at MAP2K6 (human) (compound 1.0 µM), 94% on MAP2K6 (human) (compound 10.0 µM), 98% on NUAK1 (human) (compound 1.0 µM) and 96% on NUAK1 (human) (compound 10.0 µM).

`Cc1ccc2c(c1)C(=O)[C@@]1(O)CCN(c3ccccc3)C1=N2`: the residual activity on MAP2K6 (human) (compound 10.0 µM) amounted to 94%; at NUAK1 (human) (compound 10.0 µM), 97%.

Consider `NC1(c2ccc(-c3nc4ccn5c(=O)[nH]nc5c4cc3-c3ccccc3)cc2)CCC1`, for which the residual activity at MAP2K6 (human) (compound 0.1 µM) stood at 109%; at MAP2K6 (human) (compound 1.0 µM) it was 98%; on MAP2K6 (human) (compound 10.0 µM), 104%; at NUAK1 (human) (compound 0.1 µM) it was 101%; on NUAK1 (human) (compound 1.0 µM) it was 102%.

Consider `Cc1ccc(Sc2cnc(Nc3cccc(Br)n3)s2)cc1C(=O)N1CCN(C(=O)CN)CC1`, for which the residual activity came out at 94% at MAP2K6 (human) (compound 0.1 µM); 95% on MAP2K6 (human) (compound 1.0 µM); 40% at NUAK1 (human) (compound 0.1 µM); 37% on NUAK1 (human) (compound 1.0 µM); 7% on NUAK1 (human) (compound 10.0 µM).

Consider `N#Cc1c(C2CCNCC2)cc(-c2c(O)cccc2OCC2CC2)nc1N`, for which the residual activity worked out at 76% at MAP2K6 (human) (compound 1.0 µM), 83% at MAP2K6 (human) (compound 10.0 µM), 53% at NUAK1 (human) (compound 1.0 µM) and 24% at NUAK1 (human) (compound 10.0 µM).

Take `Oc1ccc2ccccc2c1SSc1c(O)ccc2ccccc12`: the residual activity was determined as 93% on MAP2K6 (human) (compound 1.0 µM), 70% at MAP2K6 (human) (compound 5.0 µM), 11% on NUAK1 (human) (compound 1.0 µM) and 6% at NUAK1 (human) (compound 5.0 µM).

`O=C(Nc1ccccc1-c1cn2c(CN3CCNCC3)csc2n1)c1cnc2ccccc2n1`: the residual activity at MAP2K6 (human) (compound 1.0 µM) amounted to 97%; on MAP2K6 (human) (compound 10.0 µM) it was 98%; on NUAK1 (human) (compound 1.0 µM), 106%; on NUAK1 (human) (compound 10.0 µM), 78%.

With `COc1cc2ncn(-c3cc(OCc4ccccc4S(C)(=O)=O)c(C#N)s3)c2cc1OC`, the residual activity came to 91% at MAP2K6 (human) (compound 1.0 µM), 84% on MAP2K6 (human) (compound 10.0 µM), 35% on NUAK1 (human) (compound 1.0 µM) and 35% on NUAK1 (human) (compound 10.0 µM).

With `NC(=O)c1cc2c(-c3cccc(-c4ccccc4)c3)cnc(N)c2s1`, the residual activity on NUAK1 (human) (compound 0.1 µM) was 81%; at NUAK1 (human) (compound 1.0 µM), 24%; on NUAK1 (human) (compound 10.0 µM), 6%.

On to `O=c1c(O)c(-c2ccc(O)c(O)c2)oc2cc(O)c(O)c(O)c12`, for which the residual activity at MAP2K6 (human) (compound 1.0 µM) was determined as 102%; at NUAK1 (human) (compound 1.0 µM), 33%; at NUAK1 (human) (compound 10.0 µM), 12%.

Regarding `NC(=O)c1ccc(-c2ccc(Oc3cncc4sc(-c5nn[nH]n5)cc34)cc2)cc1`, the residual activity on MAP2K6 (human) (compound 1.0 µM) turned out to be 104%; at MAP2K6 (human) (compound 10.0 µM) it was 99%; on NUAK1 (human) (compound 1.0 µM) it was 92%; at NUAK1 (human) (compound 10.0 µM), 78%.

With `O=C(O)c1cc(N=Nc2ccc(S(=O)(=O)Nc3ccccn3)cc2)ccc1O`, the residual activity at NUAK1 (human) (compound 1.0 µM) was 107%; on NUAK1 (human) (compound 10.0 µM), 86%.

`FC(F)(F)c1ccc(-c2ccc(Oc3cncc4sc(-c5nn[nH]n5)cc34)cc2)cc1`: the residual activity came out at 94% on MAP2K6 (human) (compound 1.0 µM), 100% at MAP2K6 (human) (compound 10.0 µM), 128% at NUAK1 (human) (compound 1.0 µM) and 88% on NUAK1 (human) (compound 10.0 µM).

As for `Cc1cccc(-c2nn(C(=S)Nc3ccccc3)cc2-c2ccnc3ccccc23)n1`, the residual activity at NUAK1 (human) (compound 0.1 µM) was determined as 96%; on NUAK1 (human) (compound 1.0 µM), 84%.
